According to patent US20060074243A1, “Hydroxamic acid and amide compounds and their use as protease inhibitors” (Pharmacia Corporation, priority 2002, published 2006):

Columns and labels:
Test in all cases: In vitro MMP inhibition analysis (fluorogenic peptide substrate cleavage), Ki
Assay type in all cases: biochemical
Settings in all cases: Table 2
Human recombinant MMP-1 = target: T1, Human recombinant MMP-1 (Homo sapiens, UniProt P03956)
T1 construct: made in house; host or cells: MMP-1-transfected HT-1080 cells (spent media)
T1 sequence (P03956 100-469): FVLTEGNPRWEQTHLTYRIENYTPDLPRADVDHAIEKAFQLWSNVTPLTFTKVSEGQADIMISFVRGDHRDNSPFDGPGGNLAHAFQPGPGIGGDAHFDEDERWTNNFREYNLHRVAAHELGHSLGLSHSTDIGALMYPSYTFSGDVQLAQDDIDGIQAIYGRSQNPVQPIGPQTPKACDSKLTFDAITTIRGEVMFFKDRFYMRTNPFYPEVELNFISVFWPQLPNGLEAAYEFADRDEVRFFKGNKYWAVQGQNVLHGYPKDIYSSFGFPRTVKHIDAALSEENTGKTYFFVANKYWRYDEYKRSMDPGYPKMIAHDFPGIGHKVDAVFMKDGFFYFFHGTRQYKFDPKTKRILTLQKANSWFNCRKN
How it was run: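 APMA- or trypsin-activated recombinant human MMP-1 (purified from transfected HT-1080 medium) with 4 μM MCA/Dpa quenched fluorogenic peptide, 1 h at room temperature in Tris/NaCl/CaCl2 buffer pH 7.5; fluorescence ex 330/em 420 nm. Ki from Morrison-equation fit of rates, substrate at or below Km, uncorrected.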

Human recombinant MMP-9 = target: T2, Human recombinant MMP-9 (Homo sapiens, UniProt P14780)
T2 construct: made in house; host or cells: MMP-9-transfected HT1080 cells (spent media)
How it was run: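 Recombinant MMP-9 purified from transfected HT1080 cell media, activated with APMA, trypsin or recombinant MMP-3, assayed in Tris buffer pH 7.5 with CaCl2 and 4 μM fluorogenic MCA/Dpa peptide, 1 h at room temperature (ex 330/em 420 nm). Ki from Morrison-equation regression of velocity; substrate at or below Km, uncorrected.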

Human recombinant MMP-2 = target: T3, Human recombinant MMP-2 (Homo sapiens, UniProt P08253)
T3 construct: made in house; host or cells: MMP-2-transfected p2AHT2 cells
T3 sequence (P08253 110-660): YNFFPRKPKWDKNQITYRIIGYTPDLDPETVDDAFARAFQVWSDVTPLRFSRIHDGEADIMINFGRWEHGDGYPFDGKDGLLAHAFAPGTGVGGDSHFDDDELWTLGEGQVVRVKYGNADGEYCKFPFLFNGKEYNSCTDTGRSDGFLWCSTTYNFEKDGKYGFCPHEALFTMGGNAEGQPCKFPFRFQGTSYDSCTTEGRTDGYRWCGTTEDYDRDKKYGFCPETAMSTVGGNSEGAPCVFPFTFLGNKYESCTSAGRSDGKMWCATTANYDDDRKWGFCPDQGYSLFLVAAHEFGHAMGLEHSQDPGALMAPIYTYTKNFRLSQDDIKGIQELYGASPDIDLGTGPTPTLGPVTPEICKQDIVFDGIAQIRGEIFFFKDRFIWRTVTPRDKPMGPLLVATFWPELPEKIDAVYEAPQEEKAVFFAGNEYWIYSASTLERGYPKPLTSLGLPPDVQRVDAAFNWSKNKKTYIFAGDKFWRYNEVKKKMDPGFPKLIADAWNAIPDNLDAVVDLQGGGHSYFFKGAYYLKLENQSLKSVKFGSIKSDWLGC
How it was run: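 Human recombinant MMP-2 from transfected p2AHT2 cells was activated with APMA or trypsin and incubated 1 h at room temperature with compounds and 4 μM MCA-RPLGL(Dpa)ARER-NH2. Buffer was pH 7.5 Tris/NaCl/CaCl2, and fluorescence was read at ex 330/em 420 nm. Ki was fitted by Morrison's equation without substrate correction.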

T2 sequence (P14780 107-707 limits assumed): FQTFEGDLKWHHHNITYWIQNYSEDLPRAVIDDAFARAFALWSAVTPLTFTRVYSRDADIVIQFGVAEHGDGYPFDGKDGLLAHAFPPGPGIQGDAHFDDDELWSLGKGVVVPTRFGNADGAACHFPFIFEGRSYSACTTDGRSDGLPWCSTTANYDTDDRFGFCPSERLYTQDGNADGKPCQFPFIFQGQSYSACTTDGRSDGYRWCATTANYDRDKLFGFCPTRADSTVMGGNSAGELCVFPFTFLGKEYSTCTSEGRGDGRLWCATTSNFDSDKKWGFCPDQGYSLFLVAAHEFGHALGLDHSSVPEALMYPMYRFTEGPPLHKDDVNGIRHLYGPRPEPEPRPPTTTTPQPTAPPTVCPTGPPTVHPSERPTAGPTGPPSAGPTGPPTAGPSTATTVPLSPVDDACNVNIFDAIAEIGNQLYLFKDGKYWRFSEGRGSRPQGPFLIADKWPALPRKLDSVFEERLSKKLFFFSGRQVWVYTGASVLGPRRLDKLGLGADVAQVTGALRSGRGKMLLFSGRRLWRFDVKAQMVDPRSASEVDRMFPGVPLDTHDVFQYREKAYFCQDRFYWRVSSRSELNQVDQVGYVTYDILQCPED

Row | Ki (Human recombinant MMP-1) [µM] | Ki (Human recombinant MMP-9) [nM] | Ki (Human recombinant MMP-2) [nM] | SMILES
1 | 2.96 | 42.8 | 5.96 | O=C(NO)C1(S(=O)(=O)c2ccc(-c3cnccn3)cc2)CCOCC1 [Example 71]
2 | > 10 | 12.9 | 5.81 | COCCN1CCC(C(=O)NO)(S(=O)(=O)c2ccc(-c3ccc(OCCN4CCCC4)cc3)cc2)CC1 [Example 72]
3 | 0.99 | 3.1 | 0.158 | O=C(NO)C1(S(=O)(=O)c2ccc(-c3ccc(CCO)cc3)cc2)CCOCC1 [Example 98]
4 | 3.08 | 0.211 | 0.112 | CC(C)CCc1ccc(-c2ccc(S(=O)(=O)C3(C(=O)NO)CCOCC3)cc2)nc1 [Example 99]
5 | > 10 | 849 | 32.5 | COC(C)CCOc1ccc(-c2ccc(S(=O)(=O)C3(C(=O)NO)CCOCC3)cc2)cc1C(F)(F)F (stereo not drawn) [Example 100]
6 | 9.03 | 3.05 | 0.878 | CCCCCc1ccc(-c2ccc(S(=O)(=O)C3(C(=O)NO)CCOCC3)cc2)c(F)c1 [Example 101]
7 | 0.669 | 1.01 | 0.078 | COc1ccc(-c2ccc(S(=O)(=O)C3(C(=O)NO)CCOCC3)cc2)cc1F [Example 102]
8 | 2.32 | 1.38 | 0.278 | CC(C)Cc1ccc(-c2ccc(S(=O)(=O)C3(C(=O)NO)CCOCC3)cc2)nc1 [Example 103]
9 | 6.91 | 0.074 | 0.087 | O=C(NO)C1(S(=O)(=O)c2ccc(-c3ccc(-c4ccccc4)cc3)cc2)CCOCC1 [Example 104]
10 | > 10 | 2.15 | 5.79 | CCCCc1nc(-c2ccc(S(=O)(=O)C3(C(=O)NO)CCOCC3)cc2)no1 [Example 105]
11 | 2.12 | 2.29 | 0.497 | CC(C)CCOc1ccc(-c2ccc(S(=O)(=O)C3(C(=O)NO)CCOCC3)cc2)cc1 [Example 108]
12 | > 10 | 11.2 | 0.539 | CCN1CCC(C(=O)NO)(S(=O)(=O)c2ccc(-c3ccc(OCCOC)c(F)c3)cc2)CC1 [Example 110]
13 | 7.36 | 3.3 | 0.645 | CCN1CCC(C(=O)NO)(S(=O)(=O)c2ccc(-c3ccc(OCCOC)cc3)cc2)CC1 [Example 111]
14 | 8.58 | 2.21 | 0.168 | COCCOc1ccc(-c2ccc(S(=O)(=O)C3(C(=O)NO)CCN(C4CC4)CC3)cc2)cc1F [Example 112]
15 | 2.91 | 0.732 | 0.17 | COCCOc1ccc(-c2ccc(S(=O)(=O)C3(C(=O)NO)CCN(C4CC4)CC3)cc2)cc1 [Example 113]
16 | 6.55 | 2.77 | 0.217 | COCCOc1ccc(-c2ccc(S(=O)(=O)C3(C(=O)NO)CCN(CCOC)CC3)cc2)cc1F [Example 114]
17 | 3.37 | 1.22 | 0.276 | COCCOc1ccc(-c2ccc(S(=O)(=O)C3(C(=O)NO)CCN(CCOC)CC3)cc2)cc1 [Example 115]
18 | 8.94 | 9.39 | 0.514 | CCOCCOc1ccc(-c2ccc(S(=O)(=O)C3(C(=O)NO)CCN(CC)CC3)cc2)cc1 [Example 116]
19 | 4.9 | 3.93 | 0.208 | CCOCCOc1ccc(-c2ccc(S(=O)(=O)C3(C(=O)NO)CCN(CCOC)CC3)cc2)cc1 [Example 117]
